# Data published in PubChem BioAssay (NCI).
#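 Results reflect a 48-hour exposure of cells in 96-well plates to compound at five concentrations. At the GI50, growth is halved. The concentration for full growth arrest is given as TGI.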
# Assays:
# Test in all cases: NCI tumour cell line growth inhibition, 48 h
# 786-0 renal = system: 786-0 renal
# BT-549 breast = system: BT-549 breast
# CCRF-CEM leukemia = system: CCRF-CEM leukemia
# COLO 205 colon = system: COLO 205 colon
# HS 578T breast = system: HS 578T breast
# IGROV1 ovarian = system: IGROV1 ovarian
# KM12 colon = system: KM12 colon
# MDA-MB-231 breast = system: MDA-MB-231 breast
# OVCAR-3 ovarian = system: OVCAR-3 ovarian
# OVCAR-4 ovarian = system: OVCAR-4 ovarian
# OVCAR-5 ovarian = system: OVCAR-5 ovarian
# SK-OV-3 ovarian = system: SK-OV-3 ovarian
# SN12C renal = system: SN12C renal
# UACC-62 melanoma = system: UACC-62 melanoma
smiles,measurement,setting,value
CC(C)C1CC(CO)(CNc2nc(N)nc(Cl)c2/C=N\O)C1 (centres undefined),TGI,786-0 renal,46.4 µM
same,TGI,BT-549 breast,28.7 µM
same,TGI,CCRF-CEM leukemia,> 79.2 µM
same,TGI,COLO 205 colon,11.8 µM
same,TGI,HS 578T breast,53.8 µM
same,TGI,IGROV1 ovarian,50.1 µM
same,TGI,KM12 colon,18.3 µM
same,TGI,MDA-MB-231 breast,31.6 µM
same,TGI,OVCAR-3 ovarian,36.9 µM
same,TGI,OVCAR-4 ovarian,28.3 µM
same,TGI,OVCAR-5 ovarian,85.2 µM
same,TGI,SK-OV-3 ovarian,30.2 µM
same,TGI,SN12C renal,> 89.5 µM
same,TGI,UACC-62 melanoma,25.4 µM
O=c1sc(Nc2ccc3ccccc3c2Cl)nc2ccccc12,TGI,786-0 renal,> 100 µM
same,TGI,BT-549 breast,> 100 µM
same,TGI,CCRF-CEM leukemia,> 100 µM
same,TGI,COLO 205 colon,> 100 µM
same,TGI,HS 578T breast,> 100 µM
same,TGI,IGROV1 ovarian,> 100 µM
same,TGI,KM12 colon,> 100 µM
same,TGI,MDA-MB-231 breast,> 100 µM
same,TGI,OVCAR-3 ovarian,> 100 µM
same,TGI,OVCAR-4 ovarian,> 100 µM
same,TGI,OVCAR-5 ovarian,> 100 µM
same,TGI,SK-OV-3 ovarian,> 100 µM
same,TGI,SN12C renal,> 100 µM
same,TGI,UACC-62 melanoma,> 100 µM
CC(=O)c1cc(CC2Cc3cc4c(cc3C2=O)CCC4)cc2c1CCC2 (centres undefined),TGI,786-0 renal,> 100 µM
same,TGI,BT-549 breast,> 100 µM
same,TGI,CCRF-CEM leukemia,> 100 µM
same,TGI,COLO 205 colon,76.2 µM
same,TGI,HS 578T breast,> 100 µM
same,TGI,IGROV1 ovarian,> 100 µM
same,TGI,KM12 colon,> 100 µM
same,TGI,MDA-MB-231 breast,> 100 µM
same,TGI,OVCAR-3 ovarian,> 100 µM
same,TGI,OVCAR-4 ovarian,> 100 µM
same,TGI,OVCAR-5 ovarian,> 100 µM
same,TGI,SK-OV-3 ovarian,> 100 µM
same,TGI,SN12C renal,> 100 µM
same,TGI,UACC-62 melanoma,> 100 µM
CC(C)(C)CNCCCNc1ccc(Cl)cc1,TGI,786-0 renal,> 100 µM
same,TGI,BT-549 breast,> 100 µM
same,TGI,CCRF-CEM leukemia,> 100 µM
same,TGI,COLO 205 colon,45.3 µM
same,TGI,HS 578T breast,> 100 µM
same,TGI,IGROV1 ovarian,> 100 µM
same,TGI,KM12 colon,> 100 µM
same,TGI,MDA-MB-231 breast,82.3 µM
same,TGI,OVCAR-4 ovarian,> 100 µM
same,TGI,OVCAR-5 ovarian,> 100 µM
same,TGI,SK-OV-3 ovarian,> 100 µM
same,TGI,SN12C renal,> 100 µM
same,TGI,UACC-62 melanoma,33.4 µM
Cc1occc1C(=S)Nc1ccc(Cl)c(C(=O)OCC(C)C)c1,TGI,786-0 renal,33.5 µM
same,TGI,BT-549 breast,33.2 µM
same,TGI,CCRF-CEM leukemia,> 100 µM
same,TGI,COLO 205 colon,39.9 µM
same,TGI,HS 578T breast,62.6 µM
same,TGI,IGROV1 ovarian,34.5 µM
same,TGI,KM12 colon,27.5 µM
same,TGI,MDA-MB-231 breast,31.4 µM
same,TGI,OVCAR-3 ovarian,46.5 µM
same,TGI,OVCAR-4 ovarian,39.2 µM
same,TGI,OVCAR-5 ovarian,88.1 µM
same,TGI,SK-OV-3 ovarian,42.4 µM
same,TGI,SN12C renal,36.3 µM
same,TGI,UACC-62 melanoma,26.5 µM
COc1ccc(OC)c(N=Cc2cc(OC)c(OC)c(OC)c2)c1,TGI,786-0 renal,> 100 µM
same,TGI,BT-549 breast,> 100 µM
same,TGI,CCRF-CEM leukemia,66.4 µM
same,TGI,COLO 205 colon,> 100 µM
same,TGI,HS 578T breast,> 100 µM
same,TGI,IGROV1 ovarian,> 100 µM
same,TGI,KM12 colon,> 100 µM
same,TGI,MDA-MB-231 breast,> 100 µM
same,TGI,OVCAR-3 ovarian,> 40.3 µM
same,TGI,OVCAR-4 ovarian,> 100 µM
same,TGI,OVCAR-5 ovarian,> 100 µM
same,TGI,SK-OV-3 ovarian,> 100 µM
same,TGI,SN12C renal,> 100 µM
same,TGI,UACC-62 melanoma,> 100 µM
C[C@@H](Oc1ccc(Oc2cnc3ccc(Cl)cc3n2)cc1)C(=O)O,TGI,786-0 renal,> 100 µM
same,TGI,BT-549 breast,> 100 µM
same,TGI,CCRF-CEM leukemia,> 100 µM
same,TGI,COLO 205 colon,> 100 µM
same,GI50,HS 578T breast,69.6 µM
same,TGI,HS 578T breast,> 100 µM
same,TGI,IGROV1 ovarian,> 100 µM
same,TGI,KM12 colon,> 100 µM
same,TGI,MDA-MB-231 breast,> 100 µM
same,TGI,OVCAR-3 ovarian,> 100 µM
same,TGI,OVCAR-4 ovarian,> 100 µM
same,TGI,OVCAR-5 ovarian,> 100 µM
same,TGI,SK-OV-3 ovarian,> 100 µM
same,TGI,SN12C renal,> 100 µM
same,GI50,UACC-62 melanoma,46.4 µM
same,TGI,UACC-62 melanoma,> 100 µM
COC(O)C(=O)c1c2c(cc3c1CCC3)CCC2 (centres undefined),TGI,786-0 renal,> 100 µM
same,TGI,BT-549 breast,> 100 µM
same,TGI,CCRF-CEM leukemia,> 100 µM
same,TGI,COLO 205 colon,> 100 µM
same,TGI,HS 578T breast,> 100 µM
same,TGI,IGROV1 ovarian,> 100 µM
same,TGI,KM12 colon,> 100 µM
same,TGI,MDA-MB-231 breast,> 100 µM
same,TGI,OVCAR-3 ovarian,> 100 µM
same,TGI,OVCAR-4 ovarian,> 100 µM
same,TGI,OVCAR-5 ovarian,> 100 µM
same,TGI,SK-OV-3 ovarian,> 100 µM
same,TGI,SN12C renal,> 100 µM
same,TGI,UACC-62 melanoma,> 100 µM
Cc1nn(C(=O)c2ccc(Cl)cc2)c2c1C(c1ccccc1O)SC(N)=N2 (centres undefined),TGI,786-0 renal,> 10 µM
same,TGI,BT-549 breast,> 10 µM
same,TGI,CCRF-CEM leukemia,> 10 µM
same,TGI,COLO 205 colon,> 10 µM
same,TGI,HS 578T breast,> 10 µM
same,TGI,IGROV1 ovarian,> 10 µM
same,TGI,KM12 colon,> 10 µM
same,TGI,MDA-MB-231 breast,> 10 µM
same,TGI,OVCAR-3 ovarian,> 10 µM
same,TGI,OVCAR-4 ovarian,> 10 µM
same,TGI,OVCAR-5 ovarian,> 10 µM
same,TGI,SK-OV-3 ovarian,> 10 µM
same,TGI,SN12C renal,> 10 µM
same,TGI,UACC-62 melanoma,> 10 µM
CC1(c2nc3ccccc3[nH]2)CCC(C#N)C(C)(C)O1 (centres undefined),TGI,786-0 renal,> 100 µM
same,TGI,BT-549 breast,> 100 µM
same,TGI,CCRF-CEM leukemia,> 100 µM
same,TGI,COLO 205 colon,> 100 µM
same,TGI,HS 578T breast,> 100 µM
same,TGI,IGROV1 ovarian,> 100 µM
same,TGI,KM12 colon,> 100 µM
same,TGI,MDA-MB-231 breast,> 100 µM
same,TGI,OVCAR-3 ovarian,> 100 µM
same,TGI,OVCAR-4 ovarian,> 100 µM
same,TGI,OVCAR-5 ovarian,> 100 µM
same,TGI,SK-OV-3 ovarian,> 100 µM
same,TGI,SN12C renal,> 100 µM
same,TGI,UACC-62 melanoma,> 100 µM
Clc1ccc(OCc2nnc3sc(SSc4nn5c(COc6ccc(Cl)cc6)nnc5s4)nn23)cc1,TGI,786-0 renal,> 100 µM
same,GI50,BT-549 breast,48.1 µM
same,TGI,BT-549 breast,> 100 µM
same,GI50,CCRF-CEM leukemia,76.7 µM
same,TGI,CCRF-CEM leukemia,> 100 µM
same,TGI,COLO 205 colon,> 100 µM
same,TGI,HS 578T breast,> 100 µM
same,TGI,IGROV1 ovarian,> 100 µM
same,TGI,KM12 colon,> 100 µM
same,TGI,MDA-MB-231 breast,> 100 µM
same,GI50,OVCAR-3 ovarian,35.3 µM
same,TGI,OVCAR-3 ovarian,80.4 µM
same,GI50,OVCAR-4 ovarian,46.7 µM
same,TGI,OVCAR-4 ovarian,> 100 µM
same,TGI,OVCAR-5 ovarian,> 100 µM
same,TGI,SK-OV-3 ovarian,> 100 µM
same,TGI,SN12C renal,> 100 µM
same,GI50,UACC-62 melanoma,44.7 µM
same,TGI,UACC-62 melanoma,> 100 µM
Clc1cc2nc(C3CCCCO3)[nH]c2cc1Cl (centres undefined),TGI,786-0 renal,> 91.9 µM
same,TGI,BT-549 breast,68.1 µM
same,TGI,CCRF-CEM leukemia,> 100 µM
same,TGI,COLO 205 colon,> 100 µM
same,TGI,HS 578T breast,> 71.3 µM
same,TGI,IGROV1 ovarian,> 100 µM
same,TGI,KM12 colon,> 56.9 µM
same,TGI,MDA-MB-231 breast,> 100 µM
same,TGI,OVCAR-3 ovarian,23.9 µM
same,TGI,OVCAR-4 ovarian,> 100 µM
same,TGI,OVCAR-5 ovarian,> 100 µM
same,TGI,SK-OV-3 ovarian,> 100 µM
same,TGI,SN12C renal,> 100 µM
same,TGI,UACC-62 melanoma,> 100 µM
